Measurements as given in patent publication US8361964B2, “Growth hormone releasing factor (GRF) analogs and uses thereof” (Theratechnologies Inc., priority 2011, dated 2013).
Where a SMILES comes first, the peptide text is derived from it.

Legend:
Growth Hormone secretion [1] = test: Growth Hormone secretion in female mice after subcutaneous GRF analog; type: in vivo; details: female CD-1 mice; 10 μg/mouse subcutaneous; plasma 10 minutes after injection
Text: (§1) CD-1 mice (female, weighting from 20 to 25 g) were obtained from Charles River Inc. Animals were used according to a protocol of the Animal Care Committee along with the principles of the Guide for the Care and Use of Experimental Animals of the Canadian Council on Animal Care. The animals were maintained on standard laboratory chow under a 12:12 light:dark cycle. They were kept in groups of 4 mice per cage.
At the day of the experiment, mice received a subcutaneous injection of GRF analog (10 μg/mouse dissolved in 20 mM sodium acetate (AcONa)+5% mannitol at pH 5). 10 minutes after injection, the mice were anesthezied with isolufrane. Blood samples (500 μl) were obtained by intra-cardiac puncture. Blood was placed into microtainer pre-treated with K3EDTA and immediately centrifuged at 13,000 RPM in a desktop centrifuge for 2 minutes. The plasma was collected and placed into a screwcap Eppendorf™ tube and quick frozen in liquid nitrogen. The samples were then kept at −80° C. until assayed. Determination of GH levels was performed as described below.
(§2) Rat and mouse plasma samples were vortexed carefully and centrifuged at 9,000 RPM for 2 min at 4° C. The dosage of GH levels was performed using the Rat/Mouse Growth Hormone ELISA kit from Millipore (Cat. # EZRMGH-45K). Sample supernatants were first diluted 20-fold with the GH ELISA assay buffer, and 10 μl of this dilution was added to the ELISA plate with 90 μl of GH EIA assay buffer. The remaining of the procedure was performed according to the manufacturer's instructions, and the data obtained were analyzed using GraphPad Prism™ software.
(§3) The GRF analogs described herein were tested for their ability to induce GH release in female mice and rats. […] The data are presented in Tables III (mice) and IV-V (rats).

Growth Hormone secretion [2] = test: Growth Hormone secretion in female rats after subcutaneous GRF analog; type: in vivo; details: female Sprague-Dawley rats; 10 μg/rat subcutaneous; plasma 0-60 minutes
Text: as §1, with “Sprague-Dawley rats” for “CD-1 mice”, “250” for “20”, “300” for “25”, “rats” for “mice”
The animals were anesthetized with isoflurane 2.5%. A mid-section opening was made in the neck to expose the carotid artery. The carotid artery was canulated with polypropylene tubing (PE-50) to allow blood withdrawal. After surgical preparation, rats received a subcutaneous injection of GRF analog (10 μg/rat dissolved in 20 mM AcONa+5% mannitol at pH 5). For pharmacodynamics studies, blood samples (400 μL) were collected from 4 to 8 animals per group per time point. Blood samples (400 μl) were collected via the carotid catheter at 0, 10, 20, 30, 45 and 60 minutes after drug injection. Blood was placed into microtainer pre-treated with K3EDTA and immediately centrifuged at 13,000 RPM in a desktop centrifuge for 2 minutes. The plasma was collected and placed into a screw cap Eppendorf™ and quick frozen in liquid nitrogen. The samples were then kept at −80° C. until assayed. Determination of GH levels was performed as described below.
as §2, §3

Row | Compound | GH levels 10 min (Growth Hormone secretion [1]) [ng/mL] | Mean AUC (GH Area Under the curve, GH concentration over time) (Growth Hormone secretion [2]) | Mean Cmax (ng/ml) of Growth Hormone secretion (Growth Hormone secretion [2]) [ng/mL]
1 | CC/C=C/CC(=O)N[C@@H](Cc1ccc(O)cc1)C(=O)N[C@@H](C)C(=O)N[C@@H](CC(=O)O)C(=O)N[C@@H](C)C(=O)N[C@H](C(=O)N[C@@H](Cc1ccccc1)C(=O)N[C@H](C(=O)N[C@@H](CC(=O)O)C(=O)N[C@@H](CO)C(=O)N[C@@H](Cc1ccc(O)cc1)C(=O)N[C@@H](CCCNC(=N)N)C(=O)N[C@@H](CCCCN)C(=O)N[C@H](C(=O)N[C@@H](CC(C)C)C(=O)N[C@@H](C)C(=O)N[C@@H](CCC(N)=O)C(=O)N[C@@H](CC(C)C)C(=O)N[C@@H](CO)C(=O)N[C@@H](C)C(=O)N[C@@H](CCCNC(=N)N)C(=O)N[C@@H](CCC(N)=O)C(=O)N[C@@H](CC(=O)O)C(=O)N[C@H](C(=O)N[C@@H](CC(C)C)C(=O)N[C@@H](C)C(=O)N[C@@H](CCCNC(=N)N)C(=O)N[C@@H](C)C(=O)N[C@@H](C)C(=O)N[C@@H](CCCNC(=N)N)C(=O)N[C@@H](C)C(=O)N[C@@H](C)C(=O)N[C@@H](CCCNC(=N)N)C(N)=O)[C@@H](C)CC)C(C)C)[C@@H](C)O)[C@@H](C)CC [SEQ ID NO: 27, Trans-3-hexenoyl-YADAIFTDSYRKVLAQLSARQDILARAARAAR-NH2] (HELM PEPTIDE1{[CC/C=C/CC(=O)[*:2]].Y.A.D.A.I.F.T.D.S.Y.R.K.V.L.A.Q.L.S.A.R.Q.D.I.L.A.R.A.A.R.A.A.R.[am]}$$$$V2.0) | 323.6 | 8350 | 455.6
2 | CC/C=C/CC(=O)N[C@@H](Cc1ccc(O)cc1)C(=O)N[C@@H](C)C(=O)N[C@@H](CC(=O)O)C(=O)N[C@@H](C)C(=O)N[C@H](C(=O)N[C@@H](Cc1ccccc1)C(=O)N[C@H](C(=O)N[C@@H](CC(=O)O)C(=O)N[C@@H](CO)C(=O)N[C@@H](Cc1ccc(O)cc1)C(=O)N[C@@H](CCCNC(=N)N)C(=O)N[C@@H](CCCCN)C(=O)N[C@H](C(=O)N[C@@H](CC(C)C)C(=O)N[C@@H](C)C(=O)N[C@@H](CCC(N)=O)C(=O)N[C@@H](CC(C)C)C(=O)N[C@@H](CCCCN)C(=O)N[C@@H](C)C(=O)N[C@@H](CCCNC(=N)N)C(=O)N[C@@H](CCC(N)=O)C(=O)N[C@@H](CC(=O)O)C(=O)N[C@H](C(=O)N[C@@H](CC(C)C)C(=O)N[C@@H](C)C(=O)N[C@@H](CCCNC(=N)N)C(=O)N[C@@H](C)C(=O)N[C@@H](C)C(=O)N[C@@H](CCCNC(=N)N)C(N)=O)[C@@H](C)CC)C(C)C)[C@@H](C)O)[C@@H](C)CC [SEQ ID NO: 26, Trans-3-hexenoyl-YADAIFTDSYRKVLAQLKARQDILARAAR-NH2] (HELM PEPTIDE1{[CC/C=C/CC(=O)[*:2]].Y.A.D.A.I.F.T.D.S.Y.R.K.V.L.A.Q.L.K.A.R.Q.D.I.L.A.R.A.A.R.[am]}$$$$V2.0) | 484.6 | 8880 | 468.1
3 | CC[C@H](C)[C@H](NC(=O)[C@H](C)NC(=O)[C@H](CC(=O)O)NC(=O)[C@@H](C)NC(=O)[C@@H](N)Cc1ccc(O)cc1)C(=O)N[C@@H](Cc1ccccc1)C(=O)N[C@H](C(=O)N[C@@H](CC(=O)O)C(=O)N[C@@H](CO)C(=O)N[C@@H](Cc1ccc(O)cc1)C(=O)N[C@@H](CCCNC(=N)N)C(=O)N[C@@H](CCCCN)C(=O)N[C@H](C(=O)N[C@@H](CC(C)C)C(=O)N[C@@H](C)C(=O)N[C@@H](CCC(N)=O)C(=O)N[C@@H](CC(C)C)C(=O)N[C@@H](CCCN)C(=O)N[C@@H](C)C(=O)N[C@@H](CCCNC(=N)N)C(=O)N[C@@H](CCC(N)=O)C(=O)N[C@@H](CC(=O)O)C(=O)N[C@H](C(=O)N[C@@H](CC(C)C)C(=O)N[C@@H](CO)C(=O)N[C@H](CCCNC(=N)N)C(N)=O)[C@@H](C)CC)C(C)C)[C@@H](C)O [SEQ ID NO: 23, Y-a-D-A-I-F-T-D-S-Y-R-K-V-L-A-Q-L-O-A-R-Q-D-I-L-S-r-NH2] (HELM PEPTIDE1{Y.[dA].D.A.I.F.T.D.S.Y.R.K.V.L.A.Q.L.[Orn].A.R.Q.D.I.L.S.[dR].[am]}$$$$V2.0) | 269.9 |  | 
4 | CC[C@H](C)[C@H](NC(=O)[C@H](C)NC(=O)[C@H](CC(=O)O)NC(=O)[C@@H](C)NC(=O)[C@@H](N)Cc1ccc(O)cc1)C(=O)N[C@@H](Cc1ccccc1)C(=O)N[C@H](C(=O)N[C@@H](CC(=O)O)C(=O)N[C@@H](CO)C(=O)N[C@@H](Cc1ccc(O)cc1)C(=O)N[C@@H](CCCNC(=N)N)C(=O)N[C@@H](CCCCN)C(=O)N[C@H](C(=O)N[C@@H](CC(C)C)C(=O)N[C@@H](C)C(=O)N[C@@H](CCC(N)=O)C(=O)N[C@@H](CC(C)C)C(=O)N[C@@H](CCCCN)C(=O)N[C@@H](C)C(=O)N[C@@H](CCCNC(=N)N)C(=O)N[C@@H](CCC(N)=O)C(=O)N[C@@H](CC(=O)O)C(=O)N[C@@H](CC(C)C)C(=O)N[C@@H](CC(C)C)C(=O)N[C@@H](CO)C(=O)N[C@H](CCCNC(=N)N)C(N)=O)C(C)C)[C@@H](C)O [SEQ ID NO: 25, Y-a-DAIFTDSYRKVLAQLKARQDLLS-r-NH2] (HELM PEPTIDE1{Y.[dA].D.A.I.F.T.D.S.Y.R.K.V.L.A.Q.L.K.A.R.Q.D.L.L.S.[dR].[am]}$$$$V2.0) | 144.1 |  | 
5 | CC/C=C/CC(=O)N[C@@H](Cc1ccc(O)cc1)C(=O)N[C@@H](C)C(=O)N[C@@H](CC(=O)O)C(=O)N[C@@H](C)C(=O)N[C@H](C(=O)N[C@@H](Cc1ccccc1)C(=O)N[C@H](C(=O)N[C@@H](CC(=O)O)C(=O)N[C@@H](CO)C(=O)N[C@@H](Cc1ccc(O)cc1)C(=O)N[C@@H](CCCNC(=N)N)C(=O)N[C@@H](CCCCN)C(=O)N[C@H](C(=O)N[C@@H](CC(C)C)C(=O)N[C@@H](C)C(=O)N[C@@H](CCC(N)=O)C(=O)N[C@@H](CC(C)C)C(=O)N[C@@H](CCCN)C(=O)N[C@@H](C)C(=O)N[C@@H](CCCNC(=N)N)C(=O)N[C@@H](CCC(N)=O)C(=O)N[C@@H](CC(=O)O)C(=O)N[C@H](C(=O)N[C@@H](CC(C)C)C(=O)N[C@@H](CO)C(=O)N[C@H](CCCNC(=N)N)C(N)=O)[C@@H](C)CC)C(C)C)[C@@H](C)O)[C@@H](C)CC [SEQ ID NO: 24, Trans-3-hexenoyl-Y-A-D-A-I-F-T-D-S-Y-R-K-V-L-A-Q-L-O-A-R-Q-D-I-L-S-r-NH2] (HELM PEPTIDE1{[CC/C=C/CC(=O)[*:2]].Y.A.D.A.I.F.T.D.S.Y.R.K.V.L.A.Q.L.[Orn].A.R.Q.D.I.L.S.[dR].[am]}$$$$V2.0) | 332.6 |  | 
6 | CC[C@H](C)[C@H](NC(=O)[C@H](C)NC(=O)[C@H](CC(=O)O)NC(=O)[C@@H](C)NC(=O)[C@@H](N)Cc1ccc(O)cc1)C(=O)N[C@@H](Cc1ccccc1)C(=O)N[C@H](C(=O)N[C@@H](CC(=O)O)C(=O)N[C@@H](CO)C(=O)N[C@@H](Cc1ccc(O)cc1)C(=O)N[C@@H](CCCNC(=N)N)C(=O)N[C@@H](CCCCN)C(=O)N[C@H](C(=O)N[C@@H](CC(C)C)C(=O)N[C@@H](C)C(=O)N[C@@H](CCC(N)=O)C(=O)N[C@@H](CC(C)C)C(=O)N[C@@H](CCCCN)C(=O)N[C@@H](C)C(=O)N[C@@H](CCCNC(=N)N)C(=O)N[C@@H](CCC(N)=O)C(=O)N[C@@H](CC(=O)O)C(=O)N[C@H](C(=O)N[C@@H](CC(C)C)C(=O)NC(C)(C)C(=O)N[C@@H](CCCNC(=N)N)C(N)=O)[C@@H](C)CC)C(C)C)[C@@H](C)O [SEQ ID NO: 22, Y-a-DAIFTDSYRKVLAQLKARQDIL-aib-R-NH2] (HELM PEPTIDE1{Y.[dA].D.A.I.F.T.D.S.Y.R.K.V.L.A.Q.L.K.A.R.Q.D.I.L.[Aib].R.[am]}$$$$V2.0) | 249.1 |  | 
7 | H-YLDAIFTDSYRKVLAQLKARQDILARAARAAR-NH2 [SEQ ID NO: 35, YLDAIFTDSYRKVLAQLKARQDILARAARAAR-NH2] |  | 9144 | 376.9
